Experimental data as given in PubChem BioAssay AID248 (DTP/NCI, 2004).
Where “and” joins values, the source holds several entries; their conditions need not be identical. Equal values may be shown once. Inconclusive results and toxic doses are left out. Rule as the data show it: active = T/C of 150% or more; inactive = T/C below 125%.

System: L1210 leukemia ip in BDF1 mice, survival T/C
Assay: NCI In Vivo Anticancer Drug Screen. Data for tumor model L1210 Leukemia (intraperitoneal) in B6D2F1 (BDF1) mice
Settings: endpoint: mean survival time, higher = longer survival
How it was run: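 Survival endpoint. Drug-treated group vs vehicle group, expressed as T divided by C. Tumor passaged by transplantation.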

[1] = dose: 100.0 mg/kg/injection, schedule: Q01DX009 (ip), vehicle: Klucel (hydroxypropylcellulose) (HPC)
[2] = dose: 200.0 mg/kg/injection, schedule: Q01DX009 (ip), vehicle: Klucel (hydroxypropylcellulose) (HPC)
[3] = dose: 400.0 mg/kg/injection, schedule: Q01DX009 (ip), vehicle: Klucel (hydroxypropylcellulose) (HPC)
[4] = dose: 400.0 mg/kg/injection, schedule: Q01DX001 (ip), vehicle: saline with Tween-80
[5] = dose: 100.0 mg/kg/injection, schedule: Q01DX001 (ip), vehicle: saline
[6] = dose: 200.0 mg/kg/injection, schedule: Q01DX001 (ip), vehicle: saline
[7] = dose: 100.0 mg/kg/injection, schedule: Q04DX003 (ip), vehicle: saline
[8] = dose: 200.0 mg/kg/injection, schedule: Q04DX003 (ip), vehicle: saline
[9] = dose: 400.0 mg/kg/injection, schedule: Q04DX003 (ip), vehicle: saline
[10] = dose: 100.0 mg/kg/injection, schedule: Q01DX009 (ip), vehicle: saline
[11] = dose: 200.0 mg/kg/injection, schedule: Q01DX009 (ip), vehicle: saline
[12] = dose: 400.0 mg/kg/injection, schedule: Q01DX009 (ip), vehicle: saline
[13] = dose: 100.0 mg/kg/injection, schedule: Q04DX003 (ip), vehicle: saline with Tween-80
[14] = dose: 200.0 mg/kg/injection, schedule: Q04DX003 (ip), vehicle: saline with Tween-80
[15] = dose: 400.0 mg/kg/injection, schedule: Q04DX003 (ip), vehicle: saline with Tween-80
[16] = dose: 100.0 mg/kg/injection, schedule: Q04DX002 (ip), vehicle: saline with Tween-80
[17] = dose: 400.0 mg/kg/injection, schedule: Q04DX002 (ip), vehicle: saline with Tween-80
[18] = dose: 100.0 mg/kg/injection, schedule: Q04DX003 (ip), vehicle: Klucel (hydroxypropylcellulose) (HPC)
[19] = dose: 200.0 mg/kg/injection, schedule: Q04DX003 (ip), vehicle: Klucel (hydroxypropylcellulose) (HPC)
[20] = dose: 400.0 mg/kg/injection, schedule: Q04DX003 (ip), vehicle: Klucel (hydroxypropylcellulose) (HPC)

Measured: T/C

CN=C(N)c1ccc(N=C(N)c2ccc(N=C(N)c3ccc(NC(=O)c4ccc(C(=O)Nc5ccc(C(N)=Nc6ccc(C(N)=Nc7ccc(C(N)=NC)cc7)cc6)cc5)cc4)cc3)cc2)cc1
inactive: dose: 6.25 mg/kg/injection, schedule: Q01DX Z (ip), vehicle: water 110 % of control | dose: 12.5 mg/kg/injection, schedule: Q01DX Z (ip), vehicle: water 120 % of control | dose: 50.0 mg/kg/injection, schedule: Q01DX Z (ip), vehicle: water 121 % of control

CC(C)CC(C=NCC(CCN1CCOCC1)(CC(C)C)c1cccc2ccccc12)(CCN1CCOCC1)c1cccc2ccccc12 (stereo not drawn)
inactive: [1] 94 % of control | [2] 90 % of control | [3] 92 % of control

C/C(=C\C(=O)O)c1ccc(-c2ccccc2)cc1
inactive: dose: 100.0 mg/kg/injection, schedule: Q01DX001 (ip), vehicle: saline with Tween-80 96 % of control | dose: 200.0 mg/kg/injection, schedule: Q01DX001 (ip), vehicle: saline with Tween-80 100 % of control | [4] 102 % of control

CNc1ccc(C(=O)OC)cc1
inactive: [5] 100 % of control | [6] 100 % of control | dose: 400.0 mg/kg/injection, schedule: Q01DX001 (ip), vehicle: saline 103 % of control

O=[N+]([O-])c1ccc(N/N=C(/Cl)c2ccccc2)cc1
inactive: dose: 50.0 mg/kg/injection, schedule: Q04DX003 (ip), vehicle: saline 101 % of control | [7] 98 % of control | [8] 96 % of control

CC1CC1C(N)=O (stereo not drawn)
inactive: dose: 100.0 mg/kg/injection, schedule: Q04DX002 (ip), vehicle: saline 97 % of control | dose: 200.0 mg/kg/injection, schedule: Q04DX002 (ip), vehicle: saline 110 % of control

c1ccc([As](c2ccccc2)c2ccccc2)cc1
inactive: dose: 50.0 mg/kg/injection, schedule: Q01DX001 (ip), vehicle: other 103 % of control | dose: 100.0 mg/kg/injection, schedule: Q01DX001 (ip), vehicle: other 103 % of control | dose: 200.0 mg/kg/injection, schedule: Q01DX001 (ip), vehicle: other 97 % of control | dose: 400.0 mg/kg/injection, schedule: Q01DX001 (ip), vehicle: other 103 % of control

CCCCC(C(=O)O)(c1ccccc1)c1ccccc1
inactive: dose: 75.0 mg/kg/injection, schedule: Q04DX002 (ip), vehicle: gum acacia 96 % of control | dose: 150.0 mg/kg/injection, schedule: Q04DX002 (ip), vehicle: gum acacia 107 % of control

O=c1ccc2nc3cc(Cl)ccc3sc-2c1
inactive: [1] 95 % of control | [2] 96 % of control | [3] 87 % of control

CNC(=O)C1C2CCC(C2)C1C(=O)NC (stereo not drawn)
inactive: dose: 75.0 mg/kg/injection, schedule: Q04DX003 (ip), vehicle: saline 97 % of control | [7] 96 % of control | dose: 150.0 mg/kg/injection, schedule: Q04DX003 (ip), vehicle: saline 95 % of control | [8] 96 % of control | dose: 300.0 mg/kg/injection, schedule: Q04DX003 (ip), vehicle: saline 97 % of control | [9] 96 % of control

COS(=O)(=O)CCC[N+](C)(C)C
inactive: dose: 50.0 mg/kg/injection, schedule: Q01DX001 (ip), vehicle: saline 93 % of control

CC(=O)CC(=O)NCCNCCNC(=O)CC(C)=O
inactive: [10] 88 % of control | [7] 91 % of control | [11] 95 % of control | [8] 98 % of control | [12] 97 % of control | [9] 100 % of control

Cc1ccc([N+](=O)[O-])cc1NC(=O)Nc1ccc(C(=O)O)cc1
inactive: [1] 90 % of control | [2] 98 % of control | [3] 104 % of control

CCCC(O)(CCC)C(=O)O
inactive: [5] 94 % of control | [6] 94 % of control

COC(=O)Nc1cccc(OC(=O)NC(C)C)c1
inactive: [13] 95 % of control | [14] 93 % of control | [15] 93 % of control

CSC1=NCCS1
inactive: dose: 25.0 mg/kg/injection, schedule: Q01DX009 (ip), vehicle: Klucel (hydroxypropylcellulose) (HPC) 97 % of control | dose: 50.0 mg/kg/injection, schedule: Q01DX009 (ip), vehicle: Klucel (hydroxypropylcellulose) (HPC) 102 % of control | [1] 105 % of control | dose: 100.0 mg/kg/injection, schedule: Q01DX009 (ip), vehicle: carboxymethylcellulose (CMC) 111 % of control | dose: 200.0 mg/kg/injection, schedule: Q01DX009 (ip), vehicle: carboxymethylcellulose (CMC) 101 % of control

CC(=O)OCC1OC(Sc2ncc3cnccn23)C(OC(C)=O)C(OC(C)=O)C1OC(C)=O (stereo not drawn)
inactive: dose: 100.0 mg/kg/injection, schedule: Q01DX005 (ip), vehicle: saline 88 % of control | dose: 200.0 mg/kg/injection, schedule: Q01DX005 (ip), vehicle: saline 93 % of control

CC(C)=CCC(C#N)(CCN1CCCCC1)c1cccc2ccccc12 (stereo not drawn)
inactive: dose: 12.5 mg/kg/injection, schedule: Q04DX003 (ip), vehicle: Klucel (hydroxypropylcellulose) (HPC) 99 % of control | dose: 25.0 mg/kg/injection, schedule: Q04DX003 (ip), vehicle: Klucel (hydroxypropylcellulose) (HPC) 103 % of control | dose: 50.0 mg/kg/injection, schedule: Q04DX003 (ip), vehicle: Klucel (hydroxypropylcellulose) (HPC) 100 % of control

O=C(/C=C\c1ccc(Cl)c(Cl)c1)/C=C/c1ccc(Cl)c(Cl)c1
inactive: [16] 92 % of control | [17] 92 % of control

C[n+]1ccc(Nc2ccc(NC(=O)c3ccc(N)cc3[N+](=O)[O-])cc2)cc1
inactive: dose: 25.0 mg/kg/injection, schedule: Q01DX001 (ip), vehicle: saline with Tween-80 93 % of control and 107 % of control | dose: 50.0 mg/kg/injection, schedule: Q01DX001 (ip), vehicle: saline with Tween-80 97 % of control | [16] 108 % of control and 117 % of control | dose: 200.0 mg/kg/injection, schedule: Q04DX002 (ip), vehicle: saline with Tween-80 94 % of control and 101 % of control | [4] 104 % of control and 91 % of control | [17] 103 % of control and 114 % of control

CCOC(=O)Cc1cn(C)c2ccccc12
inactive: [13] 93 % of control | [14] 91 % of control | [15] 96 % of control

Cc1ccc(C)c(NC(=O)N(CC(O)c2ccccc2)C2CCCCC2)c1 (stereo not drawn)
inactive: [1] 103 % of control | [18] 96 % of control | [2] 97 % of control | [19] 100 % of control | [3] 95 % of control | [20] 104 % of control

CCN(c1ccccc1C)S(=O)(=O)c1ccccc1
inactive: [1] 109 % of control | [18] 103 % of control | [2] 101 % of control | [19] 93 % of control | [3] 87 % of control | [20] 95 % of control

NC(=O)NC1OC(CO)C(O)C(O)C1O (stereo not drawn)
inactive: [10] 95 % of control | [11] 94 % of control | [12] 86 % of control
